Data set [1] concerns mice. Conditions: cited from earlier work.
A short description of data set [2]: Caco-2 cell monolayer permeation. Conditions: human, Caco-2, pH 7.4.
Data set [3] deals with T1, μ opioid receptor (Homo sapiens, UniProt P35372).
T1 construct: expressed in transfected cells
In words: Radioligand displacement, μ. The format is binding. The settings on record: binding curve File S1, Mu Opiod Receptor, [3H]DAMGO (0.3 nM), Standard Binding Buffer, read-out: Ki.

Where two headings read alike, the source gives them in different places.

T1 sequence (P35372 whole entry): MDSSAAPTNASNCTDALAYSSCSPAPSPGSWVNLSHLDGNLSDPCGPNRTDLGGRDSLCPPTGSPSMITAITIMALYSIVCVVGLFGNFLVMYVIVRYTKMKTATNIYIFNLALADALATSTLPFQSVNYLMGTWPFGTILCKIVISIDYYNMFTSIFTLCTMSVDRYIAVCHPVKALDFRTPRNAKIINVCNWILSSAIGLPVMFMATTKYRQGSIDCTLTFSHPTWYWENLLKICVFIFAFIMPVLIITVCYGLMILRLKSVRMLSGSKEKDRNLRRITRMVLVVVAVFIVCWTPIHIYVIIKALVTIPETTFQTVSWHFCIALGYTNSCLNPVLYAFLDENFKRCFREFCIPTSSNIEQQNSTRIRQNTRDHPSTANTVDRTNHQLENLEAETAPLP

In the case of `NCc1ccc2[nH]c3c(c2c1)CC1(O)C2Cc4ccc(O)c5c4C1(CCN2CC1CC1)C3O5` (stereo not shown) [5′-aminomethylnaltrindole], in data set [1] (20 mg/kg i.p.), the toxic signs result is “gasping and convulsions”.
For the compound `O=C1CC[C@@]2(O)[C@H]3Cc4ccc(O)c5c4[C@@]2(CCN3CC2CC2)[C@H]1O5` [Naltrexone], in data set [2], the Papp A→B at 120 min was 59 ×10⁻⁶ cm/s, the Papp B→A at 120 min was found to be 270 ×10⁻⁶ cm/s and the efflux ratio at 120 min was 5.7. In addition, the LD50 in data set [1] (mice, s.c.) is 570 mg/kg.
For “DAM80: reference ligand of the mu opioid binding curve”, the Ki amounted to 410 pM in data set [3] (listed as DAM30) and 540 pM in data set [3].

These data come from article PMC3747596 (PLoS ONE, 2013).
